Patent publication US20130065818A1, “Arylamide Compounds And Compositions And Uses Thereof” (POLYMEDIX, priority 2006, published 2013)
In brackets after ≈: the same amount, converted by molar mass.

Columns and labels:
[1] = NZW rabbit keratitis model, clinical evaluation (Total Ocular Score)
Experimental: Fifteen rabbits were received from Myrtles' Rabbitry, Thompson Station, TN. The clinical isolate of fluoroquinolone-resistant, methicillin-resistant (MRSA) Staphylococcus aureus (K950) was subcultured on 5% sheep blood agar and incubated at 37° C. in 6% CO2 overnight. The next morning, the MRSA strain was suspended in sterile trypticase soy broth to a 0.5 McFarland Standard, containing approximately 5×10^8 cfu/ml of bacteria. The absorbance of the suspension was measured at 650 nm using a Beckman DU-70 spectrophotometer. OD readings of 0.07 corresponded to 5×10^8 cfu/ml of bacteria. This concentration was appropriately diluted in sterile trypticase soy broth to provide the inoculum of approximately 1,000 (1.0×10^3) cfu/eye in 25 μl. Colony counts were performed on the inoculum to determine the actual cfu inoculated. Following general anesthesia with ketamine and xylazine and topical anesthesia with proparacaine and prior to bacterial inoculation in the left eyes, 6 mm areas of the corneal epithelia was removed centrally with an Amoils epithelial scrubber. Nothing was done to the right eyes. The 15 rabbits were then inoculated intrastromally in both eyes with 25 μl of the bacterial dilution of approximately 10^3 cfu/eye of the bacteria. The bacterial inoculation of the left eyes was directly under the epithelial defect created by the Amoils epithelial scrubber. The epithelia were removed in the left corneas in order to determine whether this layer of the cornea is a barrier for Oligomer 2 penetration when compared to the right cornea with an intact epithelium. A colony count was done on the inoculum to determine the actual cfu inoculated. The rabbits were immediately treated with analgesia in the form of and intramuscular injection of ketoprofen, 1.5 mg/kg. After 4 hours, the 15 rabbits were divided into 4 treatment groups and one untreated control group sacrificed at the onset of therapy. Both eyes of each rabbit of the treatment groups were treated with one 37 μl drop of the coded solutions or control Saline or 1 drop of vancomycin from its dropper bottle. The Oligomer 2 concentrations were masked and labeled as 1 and 2. The masked concentrations were 1% Oligomer 2 and 0.5% Oligomer 2 but the specific concentrations of solutions were not known to the lab workers who carried out the experiment. The vancomycin and control (Tris-Buffered Saline) were not masked.
Treatment was scheduled for every 15 minutes for 5 hours (21 total doses). However, PMX-1 and PMX-2 were exhausted after the 19th dose. Therefore, the actual treatment was 15 minutes for 4.5 hours (19 total doses). The 3 rabbits in group V were sacrificed 4 hours PI and large 9.5 mm buttons were removed from the corneas. These were placed in 1 ml of PBS and kept on ice. The corneal buttons were homogenized for 25 seconds on ice using the motorized homogenizer. After homogenization, colony counts were done on the homogenates using 5% sheep blood agar plates to determine the amount of bacteria contained in the corneas at the onset of therapy. Following the completion of therapy, the eyes were examined for clinical signs of infection. One hour after the final treatment, the treated rabbits (Groups I-IV) were sacrificed and large 9.5 mm buttons were removed from the corneas. These were placed in 1 ml of PBS and kept on ice. The corneal buttons were homogenized for 25 seconds on ice using the motorized homogenizer. After homogenization, colony counts were performed on the homogenates using 5% sheep blood agar plates to determine the amount of bacteria contained in the corneas after treatment. The next morning, the plates were counted and the number of cfu/eye of Staphylococcus aureus was determined for each cornea.
Fifteen rabbits were received from Myrtles' Rabbitry, Thompson Station, TN.

[2] = system: E. faecalis ATCC 29212; assay: MIC, laboratory strains (Example 8); type: cell-based

SMILES	MIC [2] [µg/mL]	other results
CC(C)=CCCC(C)=CCCC(C)=CCO [Farnesol]		Toxicity (Total Ocular Scores) compared with Saline treated eyes ([1]; rabbit, in vivo): did not induce statistically greater toxicity
N=C(N)NCCCCC(=O)Nc1cc(C(F)(F)F)cc(NC(=O)c2cc(C(=O)Nc3cc(C(F)(F)F)cc(NC(=O)CCCCNC(=N)N)c3SCCN)ncn2)c1SCCN [Oligomer 2]		Effect of removal of the epithelium on Total Ocular Scores ([1]; Ker-1, 1% and 0.5% Oligomer 2, compared with intact epithelia): increased the Total Ocular Scores
N=C(N)NCCCCC(=O)Nc1cc(C(F)(F)F)cc(NC(=O)c2cc(C(=O)Nc3cc(C(F)(F)F)cc(NC(=O)CCCCNC(=N)N)c3O[C@@H]3CCNC3)ncn2)c1O[C@@H]1CCNC1 [Oligomer 4]	0.78 (≈ 0.833 µM)	
N=C(N)NCCCCC(=O)Nc1cc(C(F)(F)F)cc(NC(=O)c2cnc(C(=O)Nc3cc(C(F)(F)F)cc(NC(=O)CCCCNC(=N)N)c3SCCN)cn2)c1SCCN [Oligomer 5]	1.56 (≈ 1.7 µM)	
